From article PMC4745082, “A Novel PET Imaging Probe for the Detection and Monitoring of Translocator Protein 18 kDa Expression in Pathological Disorders” (Scientific Reports, 2016)

Assay: Ex vivo tissue distribution in normal ICR mice
Conditions: for tissue radioactivity, Adrenal / tissue radioactivity, Blood / tissue radioactivity, Brain / tissue radioactivity, Femur / tissue radioactivity, Heart / tissue radioactivity, Kidney / tissue radioactivity, L. Intestine / tissue radioactivity, Liver / tissue radioactivity, Lung / tissue radioactivity, Muscle / tissue radioactivity, S. Intestine / tissue radioactivity, Spleen / tissue radioactivity, Stomach: normal ICR mice, tail-vein injection
Description: Purified [^18F]CB251 was reconstituted in a 10% ethanol-saline solution. Animals were killed at various times after tail-vein injection of [^18F]CB251 (0.74 MBq/0.2 mL per mouse) and the radioactivity concentrations were measured in various tissues upon dissection. […] The radioactivity concentration in the femur remained low for 120 min (1.19 ± 0.50%ID/g at 5 min post injection; 1.49 ± 0.80%ID/g at 120 min post injection).
Tissue distribution studies were performed in normal male ICR mice (7 weeks, 25-30 g) with tail-vein administration of [^18F]CB251 (0.74 MBq/mouse) dissolved in 10% ethanol in saline to a final volume of 200 μL. The animals (n = 5 for each time point) were euthanised with diethyl ether at 5, 15, 30, 60 and 120 min post injection. After the mice were euthanised, blood and other organs such as the heart, liver, lung, stomach, spleen, kidney, intestine, muscle, brain, adrenal and femur were removed, weighed and counted for radioactivity in a NaI (Tl) well counter (Wizard^TM3”, PerkinElmer). The injected dose was calculated from standards prepared from the injection solution. The accumulated radioactivity of all tissues is presented as the percentage of the injected dose per gram of tissue (%ID/g). All animal studies were performed with the approval of the Institutional Animal Care and Use Committee of the Seoul National University Bundang Hospital (SNUBH) and the methods were carried out in accordance with the approved guidelines.

CCCN(CCC)C(=O)Cc1c(-c2ccc(OCC[18F])cc2)nc2c(Cl)cc(Cl)cn12 [[^18F]CB251, 2-(2-(4-(2-[^18F]fluoroethoxy)phenyl)-6,8-dichloroimidazo[1,2-a]pyridin-3-yl)-N,N-dipropylacetamide]
uptake of radioactivity in the femur (healthy mice, summary bound in text, indicates negligible defluorination): < 2 %ID/g | uptake in TSPO-enriched tissues (male, ICR, mouse, in vivo): > 22 %ID/g | tissue radioactivity, Adrenal (5 min post injection): 19.06 ± 5.48 %ID/g | tissue radioactivity, Adrenal (15 min post injection): 22.60 ± 5.00 %ID/g | tissue radioactivity, Adrenal (30 min post injection): 19.73 ± 3.42 %ID/g | tissue radioactivity, Adrenal (60 min post injection): 12.69 ± 5.62 %ID/g | tissue radioactivity, Adrenal (120 min post injection): 14.78 ± 8.26 %ID/g | tissue radioactivity, Blood (5 min post injection): 4.39 ± 0.78 %ID/g | tissue radioactivity, Blood (15 min post injection): 2.17 ± 0.40 %ID/g | tissue radioactivity, Blood (30 min post injection): 1.24 ± 0.26 %ID/g | tissue radioactivity, Blood (60 min post injection): 0.60 ± 0.12 %ID/g | tissue radioactivity, Blood (120 min post injection): 0.64 ± 0.26 %ID/g | tissue radioactivity, Brain (5 min post injection): 2.89 ± 0.23 %ID/g | tissue radioactivity, Brain (15 min post injection): 1.94 ± 0.24 %ID/g | tissue radioactivity, Brain (30 min post injection): 1.39 ± 0.13 %ID/g | tissue radioactivity, Brain (60 min post injection): 0.63 ± 0.24 %ID/g | tissue radioactivity, Brain (120 min post injection): 0.53 ± 0.23 %ID/g | tissue radioactivity, Femur (5 min post injection): 1.19 ± 0.50 %ID/g | tissue radioactivity, Femur (15 min post injection): 1.25 ± 0.41 %ID/g | tissue radioactivity, Femur (30 min post injection): 1.94 ± 0.36 %ID/g | tissue radioactivity, Femur (60 min post injection): 1.41 ± 0.64 %ID/g | tissue radioactivity, Femur (120 min post injection): 1.49 ± 0.80 %ID/g | tissue radioactivity, Heart (5 min post injection): 29.49 ± 2.36 %ID/g | tissue radioactivity, Heart (15 min post injection): 24.16 ± 4.67 %ID/g | tissue radioactivity, Heart (30 min post injection): 23.11 ± 5.16 %ID/g | tissue radioactivity, Heart (60 min post injection): 10.47 ± 4.50 %ID/g | tissue radioactivity, Heart (120 min post injection): 8.62 ± 4.57 %ID/g | tissue radioactivity, Kidney (5 min post injection): 22.17 ± 1.63 %ID/g | tissue radioactivity, Kidney (15 min post injection): 24.55 ± 5.11 %ID/g | tissue radioactivity, Kidney (30 min post injection): 23.19 ± 5.68 %ID/g | tissue radioactivity, Kidney (60 min post injection): 14.55 ± 5.74 %ID/g | tissue radioactivity, Kidney (120 min post injection): 15.60 ± 8.55 %ID/g | tissue radioactivity, L. Intestine (5 min post injection): 1.54 ± 0.19 %ID/g | tissue radioactivity, L. Intestine (15 min post injection): 1.53 ± 0.13 %ID/g | tissue radioactivity, L. Intestine (30 min post injection): 1.69 ± 0.21 %ID/g | tissue radioactivity, L. Intestine (60 min post injection): 1.37 ± 0.56 %ID/g | tissue radioactivity, L. Intestine (120 min post injection): 2.09 ± 1.07 %ID/g | tissue radioactivity, Liver (5 min post injection): 4.69 ± 0.66 %ID/g | tissue radioactivity, Liver (15 min post injection): 6.67 ± 1.10 %ID/g | tissue radioactivity, Liver (30 min post injection): 8.19 ± 1.59 %ID/g | tissue radioactivity, Liver (60 min post injection): 6.80 ± 2.64 %ID/g | tissue radioactivity, Liver (120 min post injection): 7.17 ± 2.99 %ID/g | tissue radioactivity, Lung (5 min post injection): 106.4 ± 8.61 %ID/g | tissue radioactivity, Lung (15 min post injection): 65.70 ± 11.3 %ID/g | tissue radioactivity, Lung (30 min post injection): 38.36 ± 3.97 %ID/g | tissue radioactivity, Lung (60 min post injection): 17.69 ± 5.77 %ID/g | tissue radioactivity, Lung (120 min post injection): 13.22 ± 6.10 %ID/g | tissue radioactivity, Muscle (5 min post injection): 0.83 ± 0.34 %ID/g | tissue radioactivity, Muscle (15 min post injection): 1.19 ± 0.22 %ID/g | tissue radioactivity, Muscle (30 min post injection): 2.01 ± 0.34 %ID/g | tissue radioactivity, Muscle (60 min post injection): 1.52 ± 0.59 %ID/g | tissue radioactivity, Muscle (120 min post injection): 1.45 ± 0.65 %ID/g | tissue radioactivity, S. Intestine (5 min post injection): 3.30 ± 0.73 %ID/g | tissue radioactivity, S. Intestine (15 min post injection): 4.54 ± 0.60 %ID/g | tissue radioactivity, S. Intestine (30 min post injection): 4.43 ± 0.90 %ID/g | tissue radioactivity, S. Intestine (60 min post injection): 3.43 ± 1.35 %ID/g | tissue radioactivity, S. Intestine (120 min post injection): 3.78 ± 1.96 %ID/g | tissue radioactivity, Spleen (5 min post injection): 17.63 ± 3.38 %ID/g | tissue radioactivity, Spleen (15 min post injection): 25.11 ± 2.16 %ID/g | tissue radioactivity, Spleen (30 min post injection): 23.27 ± 3.52 %ID/g | tissue radioactivity, Spleen (60 min post injection): 14.24 ± 4.47 %ID/g | tissue radioactivity, Spleen (120 min post injection): 13.82 ± 5.17 %ID/g | tissue radioactivity, Stomach (5 min post injection): 1.86 ± 0.48 %ID/g | tissue radioactivity, Stomach (15 min post injection): 2.13 ± 0.77 %ID/g | tissue radioactivity, Stomach (30 min post injection): 1.84 ± 0.49 %ID/g | tissue radioactivity, Stomach (60 min post injection): 0.98 ± 0.41 %ID/g | tissue radioactivity, Stomach (120 min post injection): 1.97 ± 0.95 %ID/g
